Results taken from paper PMC10287695, “Non-covalent inhibitors of thioredoxin glutathione reductase with schistosomicidal activity in vivo” (Nature Communications, 2023).
Where “and” joins values, the source holds several entries; their conditions need not be identical. Equal entries are not always repeated. Where two headings read alike, the source gives them in different places. Marks after values point to notes of the source that are not given here.

Legend:
[1] = test system: S. mansoni adult worms; test: Schistosomicidal activity ex vivo, adult worms (Cell Titer Glo), alone or with channel blockers; type: cell-based; details: for LD50 ex vivo S. mansoni adult: 24 h exposure, compound alone
Description: Three-week old, female Swiss-Webster mice obtained from the Charles River were housed in the Comparative Research Center of Rush University Medical Center. Mice were infected by percutaneous tail exposure to about 200 S. mansoni or 50 S. japonicum cercaria for adult worms and about 1000 cercaria for juvenile S. mansoni worms through natural transdermal penetration of the cercariae for 1 h[81].
DMSO formulated compounds were diluted with phenol red free M199 medium or RPMI medium for NTS or juvenile and adult worms, respectively, at <1% DMSO final concentrations. NTS, juvenile and adult worms from overnight cultures were tested against compounds in triplicate. Controls were treated with DMSO alone or 5 µM AF as a positive control in appropriate medium. […] Schistosome viabilities in the presence of the compounds were assessed using this formula: % Viability = Averages of Test / Averages of DMSO Control x 100.

[2] = test system: Vero cells; test: Cytotoxicity in mammalian cells (Cell Titer Glo); type: cell-based
Description: Following overnight incubation, formulated DMSO-compound stock solutions were diluted with DMEM at <1% DMSO final concentrations. […] Vero cells treated similarly with different concentrations of PZQ, MZM and AF (Cayman Chemicals) were used as positive controls.

[3] = molecular target: T1, S. mansoni TGR (Schistosoma mansoni, UniProt Q962Y6); test: S. mansoni TGR enzyme inhibition (DTNB reduction); type: biochemical; details: for S. mansoni TGR inhibition (%) at 66.7 µM: 6 h preincubation (enzyme + 100 µM NADPH + compound)
T1 construct: made in house
T1 sequence (Q962Y6 1-598): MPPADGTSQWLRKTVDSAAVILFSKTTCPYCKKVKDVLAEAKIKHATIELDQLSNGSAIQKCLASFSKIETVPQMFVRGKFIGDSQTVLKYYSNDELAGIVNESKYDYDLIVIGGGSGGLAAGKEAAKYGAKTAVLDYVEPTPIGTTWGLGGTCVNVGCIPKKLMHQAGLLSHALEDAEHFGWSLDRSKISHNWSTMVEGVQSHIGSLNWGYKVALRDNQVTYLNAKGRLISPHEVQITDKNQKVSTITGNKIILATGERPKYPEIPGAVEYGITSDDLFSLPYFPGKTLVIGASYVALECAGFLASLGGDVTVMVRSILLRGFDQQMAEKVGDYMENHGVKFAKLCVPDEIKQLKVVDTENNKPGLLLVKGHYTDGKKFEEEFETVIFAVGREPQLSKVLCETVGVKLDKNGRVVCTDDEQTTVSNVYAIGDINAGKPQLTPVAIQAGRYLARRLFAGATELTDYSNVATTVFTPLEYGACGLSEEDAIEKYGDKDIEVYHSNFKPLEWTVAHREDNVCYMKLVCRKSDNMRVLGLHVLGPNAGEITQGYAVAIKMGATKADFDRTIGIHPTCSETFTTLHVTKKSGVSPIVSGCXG

[4] = test system: S. mansoni newly transformed schistosomula (NTS); test: Schistosomicidal activity ex vivo, NTS (Cell Titer Glo); type: cell-based; details: for LD50 ex vivo S. mansoni NTS: 24 h exposure, Cell TiterGlo; for viability at 0.5 µM / viability at 1 µM / viability at 5 µM / viability at 10 µM / viability at 20 µM / viability at 30 µM: Schistosoma mansoni
Method in brief: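 NTS (240/well) in M199 with 5.5 mM D-glucose and 5% heat-inactivated FBS exposed to compounds in triplicate at <1% DMSO, 37 °C, 5% CO2. Viability from worm ATP by Cell Titer Glo at 24 or 72 h, as % of DMSO control; 5 µM AF positive control.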

Compound: CC1C(NCc2cn(C3OCC(O)C(O)C3O)c3ccccc23)CC2CC1C2(C)C (stereo not shown) [Compound 9]
- LD50 ex vivo S. mansoni adult [1]: >100^a µM and >100 µM
- viability at 5 µM ([1]; Schistosoma mansoni, S. mansoni adult worms, 5 µM, relative to Worm + RPMI control, read-out: % viability): 99.2%
- viability at 15 µM ([1]; Schistosoma mansoni, S. mansoni adult worms, 15 µM, relative to Worm + RPMI control, read-out: % viability): 91.1%
- viability at 30 µM ([1]; Schistosoma mansoni, S. mansoni adult worms, 30 µM, relative to Worm + RPMI control, read-out: % viability): 88.8%
- viability at 50 µM ([1]; Schistosoma mansoni, S. mansoni adult worms, 50 µM, relative to Worm + RPMI control, read-out: % viability): 83.3%
- viability at 100 µM ([1]; Schistosoma mansoni, S. mansoni adult worms, 100 µM, relative to Worm + RPMI control, read-out: % viability): 78.4%
- LD50 ex vivo VERO ([2]; African green monkey, 24 h): >50^a µM
- EC50 ([2]; Chlorocebus sabaeus, Vero, estimate from raw data, read-out: EC50 viability of Vero cells): > 200 µM
- IC50 ([3]; 15 min preincubation (enzyme + 100 µM NADPH + compound)): 57.5 ± 2.46 µM
- inhibition at 1 µM ([3]; TGR, 15 minutes pre-incubation, compound 1 µM): 3.4%
- inhibition at 5 µM ([3]; TGR, 15 minutes pre-incubation, compound 5 µM): 11.8%
- inhibition at 15 µM ([3]; TGR, 15 minutes pre-incubation, compound 15 µM, read-out: % inhibition): 32.6%
- inhibition at 30 µM ([3]; TGR, 15 minutes pre-incubation, compound 30 µM, read-out: % inhibition): 49.3%
- inhibition at 66.7 µM ([3]; TGR, 15 minutes pre-incubation, compound 66.7 µM, read-out: % inhibition): 68.2%
- LD50 ex vivo S. mansoni NTS [4]: 11.14 ± 1.04 µM

Compound: C[C@@H]1N=C(c2ccccc2Cl)c2cc([N+](=O)[O-])ccc2NC1=O [MZM, meclonazepam, reference compound]
- LD50 ex vivo S. mansoni adult [1]: 26.9 ± 0.97 µM
- viability at 5 µM ([1]; Schistosoma mansoni): 91.9%
- viability at 15 µM ([1]; Schistosoma mansoni): 69.8%
- viability at 30 µM ([1]; Schistosoma mansoni): 48.7%
- viability at 50 µM ([1]; Schistosoma mansoni): 31.3%
- LD50 ex vivo VERO ([2]; 24-hour exposure): >50^a µM
- S. mansoni TGR inhibition (%) at 66.7 µM [3]: n.i.^e
- LD50 ex vivo S. mansoni NTS [4]: 13.7 ± 0.87 µM
- viability at 0.5 µM [4]: 93.3%
- viability at 1 µM [4]: 87.2%
- viability at 5 µM [4]: 64.8%
- viability at 10 µM [4]: 57.8%
- viability at 20 µM [4]: 43.9%
- viability at 30 µM [4]: 35.2%

Compound: O=C(C1CCCCC1)N1CC(=O)N2CCc3ccccc3C2C1 (stereo not shown) [PZQ, praziquantel]
- LD50 ex vivo S. mansoni adult [1]: 32.8 ± 4.07 µM
- viability at 5 µM ([1]; Schistosoma mansoni): 95.6%
- viability at 15 µM ([1]; Schistosoma mansoni): 75.1%
- viability at 30 µM ([1]; Schistosoma mansoni): 54.8%
- viability at 50 µM ([1]; Schistosoma mansoni): 35.2%
- LD50 ex vivo VERO ([2]; 24-hour exposure): >50^a µM
- S. mansoni TGR inhibition (%) at 66.7 µM [3]: n.i.^e
- LD50 ex vivo S. mansoni NTS [4]: 27.1 ± 2.27 µM
- viability at 20 µM [4]: 58.2%
- viability at 0.5 µM ([4]; S. mansoni NTS, Conc. 0.5 µM, read-out: % viability): 94.3%
- viability at 1 µM ([4]; S. mansoni NTS, Conc. 1 µM, read-out: % viability): 91.8%
- viability at 5 µM ([4]; S. mansoni NTS, Conc. 5 µM, read-out: % viability): 85.6%
- viability at 10 µM ([4]; S. mansoni NTS, Conc. 10 µM, read-out: % viability): 71.9%
- viability at 30 µM ([4]; S. mansoni NTS, Conc. 30 µM, read-out: % viability): 35.8%
